Experiment [1] addresses EGFR T790M (Homo sapiens, UniProt P00533, T790M). The experiment can be described thus: EGFR enzyme assay. Format: biochemical. As to conditions: T790M mutant. The method, then:
The following TABLE II lists compounds representative of the invention and their activity in EGFR assays. In these assays, the following grading was used: A: <0.1 μM; B: 0.1-10 μM.

Experiment [2] concerns NCI-H1975 cells. Briefly: Efficacy studies in tumor bearing mice (NCI-H1975 xenograft). It is filed as in vivo. The settings on record: female nu/nu mice, subcutaneous NCI-H1975 tumors, orally at 40 mg/kg daily. The method, then:
2. Efficacy Studies in Tumor Bearing Mice:
Female nu/nu mice were implanted with 1×10^7 NCI-H1975 cells in 50% Matrigel subcutaneously in the flank. Tumors were pair matched with a group size of 10 mice. Test compound was administrated orally at 40 mg/kg daily.

Structures are written as SMILES.

EGFR T790M, sequence (P00533 25-1210 T790M): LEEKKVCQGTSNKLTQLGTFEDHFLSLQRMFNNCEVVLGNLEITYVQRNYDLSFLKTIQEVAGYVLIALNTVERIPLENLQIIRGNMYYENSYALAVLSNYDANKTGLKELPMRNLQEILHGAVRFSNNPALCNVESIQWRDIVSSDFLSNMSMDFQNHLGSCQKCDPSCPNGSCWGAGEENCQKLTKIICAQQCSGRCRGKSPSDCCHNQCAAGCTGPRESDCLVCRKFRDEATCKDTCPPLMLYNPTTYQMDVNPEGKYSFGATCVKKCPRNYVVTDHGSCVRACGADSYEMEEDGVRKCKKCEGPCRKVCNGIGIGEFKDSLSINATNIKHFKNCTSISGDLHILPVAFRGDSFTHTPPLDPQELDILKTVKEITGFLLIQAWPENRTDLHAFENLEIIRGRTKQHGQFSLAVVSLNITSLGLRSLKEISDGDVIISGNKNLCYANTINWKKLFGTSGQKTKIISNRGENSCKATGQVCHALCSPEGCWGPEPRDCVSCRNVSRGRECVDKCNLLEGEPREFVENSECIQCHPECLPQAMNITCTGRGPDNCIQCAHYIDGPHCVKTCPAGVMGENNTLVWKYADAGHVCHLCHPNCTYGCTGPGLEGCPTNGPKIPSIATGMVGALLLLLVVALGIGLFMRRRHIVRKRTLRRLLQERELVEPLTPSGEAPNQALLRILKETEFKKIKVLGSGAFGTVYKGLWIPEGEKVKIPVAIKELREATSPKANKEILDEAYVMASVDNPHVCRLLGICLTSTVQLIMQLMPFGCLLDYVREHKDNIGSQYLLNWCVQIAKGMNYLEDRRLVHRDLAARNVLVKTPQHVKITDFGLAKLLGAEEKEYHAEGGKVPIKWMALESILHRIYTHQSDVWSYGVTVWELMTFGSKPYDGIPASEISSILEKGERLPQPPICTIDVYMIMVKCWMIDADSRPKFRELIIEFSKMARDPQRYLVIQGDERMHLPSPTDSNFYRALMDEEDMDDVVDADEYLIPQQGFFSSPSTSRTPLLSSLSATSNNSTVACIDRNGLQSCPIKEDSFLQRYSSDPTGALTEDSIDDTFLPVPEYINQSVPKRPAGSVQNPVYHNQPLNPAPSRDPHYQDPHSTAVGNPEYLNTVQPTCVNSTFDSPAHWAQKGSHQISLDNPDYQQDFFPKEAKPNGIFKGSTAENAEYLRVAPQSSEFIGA

In the case of `C=CC(=O)Nc1cc(Nc2nc(-c3cn(C(C)C)c4ccccc34)c3sccc3n2)c(OC)cc1N(C)CCN(C)C` [Compound 3, N-[2-[2-(dimethylamino)ethyl-methyl-amino]-5-[[4-(1-isopropylindol-3-yl)thieno[3,3-d]pyrimidin-2-yl]amino]-4-methoxy-phenyl]prop-2-enamide], in experiment [1], the half-inhibitory concentration (IC50) is < 0.1 µM.

Consider `C=CC(=O)Nc1cc(Nc2nc(-c3cn(C(C)(C)C)c4ccccc34)c3sccc3n2)c(OC)cc1N(C)CCN(C)C` [Compound 4, N-[5-[[4-(1-tert-butylindol-3-yl)thieno[3,2-d]pyrimidin-2-yl]amino]-2-[2-(dimethylamino)ethyl-methyl-amino]-4-methoxy-phenyl]prop-2-enamide], for which, in experiment [1], the IC50 was 0.1 to 10 µM.

For the compound `C=CC(=O)Nc1cc(Nc2nc(-c3cn(CC)c4ccccc34)c3sccc3n2)c(OC)cc1N(C)CCN(C)C` [Compound 2, N-[2-[2-(dimethylamino)ethyl-methyl-amino]-5-[[4-(1-ethylindol-3-yl)thieno[3,2-d]pyrimidin-2-yl]amino]-4-methoxy-phenyl]prop-2-enamide], in experiment [1], the IC50 is < 0.1 µM. Further, in experiment [2], the “Tumor growth inhibition (%)” value is given as >75%.

As to `C=CC(=O)Nc1cc(Nc2nc(-c3cn(C)c4ccc(C)cc34)c3sccc3n2)c(OC)cc1N(C)CCN(C)C` [Compound 5, N-[2-[2-(dimethylamino)ethyl-methyl-amino]-5-[[4-(1,5-dimethylindol-3-yl)thienol[3,2-d]pyrimidin-2-yl]amino]-4-methoxy-phenyl]prop-2-enamide], the half-maximal inhibitory concentration (IC50) in experiment [1] is < 0.1 µM.

For the compound `C=CC(=O)Nc1cc(Nc2nc(-c3cn(C)c4ccc(OC)cc34)c3sccc3n2)c(OC)cc1N(C)CCN(C)C` [Compound 6, N-[2-[2-(dimethylamino)ethyl-methyl-amino]-4-methoxy-5-[[4-(5-methoxy-1-methyl-indol-3-yl)thieno[3,2-d]pyrimidin-2-yl]amino]phenyl]prop-2-enamide], the IC50 in experiment [1] was < 0.1 µM.

Take `C=CC(=O)Nc1cc(Nc2nc(-c3cn(C)c4ccccc34)c3sccc3n2)c(OC)cc1N(C)CCN(C)C` [Compound 1, N-[2-[2-(dimethylamino)ethyl-methyl-amino]-4-methoxy-5-[[4-(1-methylindol-3-yl)thieno[3,2-d]pyrimidin-2-yl]amino]phenyl]prop-2-enamide]: the IC50 in experiment [1] is < 0.1 µM. The “Tumor growth inhibition (%)” value in experiment [2] is listed as >75%.

For `C=CC(=O)Nc1cc(Nc2nc(-c3cn(C)c4cc(C)ccc34)c3sccc3n2)c(OC)cc1N(C)CCN(C)C` [Compound 8, N-[2-[2-(dimethylamino)ethyl-methyl-amino]-5-[[4-(1,6-dimethylindol-3-yl)thieno[3,2-d]pyrimidin-2-yl]amino]-4-methoxy-phenyl]prop-2-enamide], in experiment [1], the IC50 is < 0.1 µM.

With `C=CC(=O)Nc1cc(Nc2nc(-c3cn(C)c4cc(OC)ccc34)c3sccc3n2)c(OC)cc1N(C)CCN(C)C` [Compound 7, N-[2-[2-(dimethylamino)ethyl-methyl-amino]-4-methoxy-5-[[4-(6-methoxy-1-methyl-indol-3-yl)thieno[3,2-d]pyrimidin-2-yl]amino]phenyl]prop-2-enamide], the IC50 in experiment [1] was in the range of 0.1 to 10 µM.

One may read the IC50 as the concentration that inhibits the measured activity by half.

For the origin of these results see patent US10829495B2, “Thieno-pyrimidine derivatives and uses thereof” (ZHEJIANG JIANFENG-YIEN BIOTECHNOLOGY CO., LTD., priority 2015, dated 2020).
